Assay results: patent US9969758B2, “Antimicrobial compounds” (BIOMERIEUX, priority 2014, dated 2018)
≈ marks a conversion by molar mass, not a printed value.

Experiments:
Test in all cases: MIC by agar dilution
E. cloacae (27) = type: cell-based, Enterobacter cloacae; details: Enterobacter cloacae
Text: (§1) Bacterial isolates. […] These included Citrobacter freundii (n=5), other species of Citrobacter (n=4), Enterobacter aerogenes (n=1), Enterobacter cloacae (n=27), Escherichia coli (n=53), Klebsiella oxytoca (n=5), Klebsiella pneumoniae (n=87), Kluyvera spp (n=1), Proteus mirabilis (n=8), Providencia rettgeri (n=2), Salmonella spp (n=3), and Serratia marcescens (n=1). Among these 197 isolates, there were 128 (65%) carbapenemase producers, including; 87 with NDM-1, 9 with IMP, 11 with KPC, 14 with OXA-48 and 7 with VIM. The majority of the carbapenemase producers jointly produced broad-spectrum β-lactamases (BSBL) or cephalosporinases (AmpC β-lactamases), but the latter are not documented for the sake of clarity.
(§2) Determining the minimum inhibitory concentrations (MIC). All the MICs were determined using an agar dilution method. This required use of a medium without a defined antagonist (peptone-free), prepared as described previously with the inclusion of 2% horse blood lysed with saponin, 25.0 μg/mL of NAD and 25.0 μg/mL of hemin [17]. The compounds tested were dissolved in sterile deionised water and incorporated into the agar medium in a concentration range of 0.0031 to 8.0 μg/mL (0.016 to 32 μg/mL for gram-positive bacteria). All the isolates were prepared at a density equivalent to 0.5 McFarland units in sterile deionised water using a densitometer (approximately 1.5×10^8 CFU/mL), and then diluted to 1 for 15. An aliquot of 1 μL of each diluted suspension was then placed onto plates with a multispot inoculator to give the final recommended inoculation of 10 000 CFU/spot. The MICs of fosfomycin were determined by the same method, except that the IsoSensitest medium (Oxoid, Basingstoke, United Kingdom) was used, plus 25.0 μg/mL of glucose-6-phosphate (Sigma, Poole, United Kingdom) and an extended range of fosfomycin concentrations. All the dishes (including the antimicrobial-free controls) were incubated for 22 hours at 37° C. All the tests were performed on at least two independent replicates in order to examine the reproducibility.

E. faecalis (11) = type: cell-based, Enterococcus faecalis
Text: (§3) A collection of 50 isolates of Staphylococci aureus included 36 strains of methicillin-resistant S. aureus (MRSA) frequently encountered in Europe, including strains isolated in Belgium, Finland, France, Germany and the United Kingdom. Another strain of MRSA, NCTC 11939, was included as a control, as well as a methicillin-sensitive control (NCTC 6571). Twelve other isolates of methicillin-sensitive Staphylococcus aureus (MSSA) recently collected from blood cultures were also included. Finally, 50 isolates of enterococci included two control strains (Enterococcus faecalis NCTC 755 and Enterococcus faecium NCTC 7171) and 48 isolates originating from clinical samples obtained from at least three different hospitals. The clinical isolates included E. faecalis (n=10), E. faecium (n=33), Enterococcus casseliflavus (n=3), Enterococcus gallinarum (n=2).
as §2

E. faecium (34) = type: cell-based, Enterococcus faecium; details: Enterococcus faecium
Text: as §3, §2

K. pneumoniae (87) = type: cell-based, Klebsiella pneumoniae; details: Klebsiella pneumoniae
Text: as §1, §2

AmpC (22) = type: cell-based, Enterobacteriaceae
Text: as §1, §2

[1] = test system: methicillin-resistant Staphylococcus aureus; type: cell-based
Text: as §3, §2

All Enterococci (50) = type: cell-based
Text: as §3, §2

[2] = test system: methicillin-sensitive Staphylococcus aureus; type: cell-based
Text: as §3, §2

[3] = test system: glycopeptide-resistant enterococci; type: cell-based
Text: as §3, §2

All S. aureus (50) = type: cell-based, Staphylococcus aureus
Text: as §3, §2

[4] = test system: carbapenemase-producing Enterobacteriaceae; type: cell-based
Text: as §1, §2

[5] = test system: Enterobacteriaceae with a broad-spectrum β-lactamase; type: cell-based
Text: as §1, §2

Enterobacteriaceae (197) = type: cell-based
Text: as §1, §2

E. coli (53) = type: cell-based, Escherichia coli; details: Escherichia coli
Text: as §1, §2

[6] = read-out: Modal MIC (most frequent MIC)

Structure (SMILES): N[C@@H](CCl)C(=O)N[C@@H](CCl)C(=O)O [β-Cl-Ala-β-Cl-Ala, β-chloro-L-alanyl-β-chloro-L-alanine]
- MIC50 (E. cloacae (27)): > 8 µg/mL
- MIC90 (E. cloacae (27)): > 8 µg/mL
- MIC (E. cloacae (27); [6]): > 8 µg/mL
- MIC Range (E. faecalis (11); E. faecalis (11)): 4 to 16 µg/mL
- MIC50 (E. faecalis (11); Enterococcus faecalis): 8 µg/mL (≈ 34.9 µM)
- MIC90 (E. faecalis (11); Enterococcus faecalis): 16 µg/mL (≈ 69.8 µM)
- MIC (E. faecalis (11); Enterococcus faecalis, read-out: Modal MIC (most frequent MIC)): 8 µg/mL (≈ 34.9 µM)
- MIC50 (E. faecium (34)): 16 µg/mL (≈ 69.8 µM)
- MIC90 (E. faecium (34)): 32 µg/mL (≈ 140 µM)
- MIC (E. faecium (34); [6]): 16 µg/mL (≈ 69.8 µM)
- MIC50 (K. pneumoniae (87)): > 8 µg/mL
- MIC90 (K. pneumoniae (87)): > 8 µg/mL
- MIC (K. pneumoniae (87); [6]): > 8 µg/mL
- MIC50 (AmpC (22)): > 8 µg/mL
- MIC90 (AmpC (22)): > 8 µg/mL
- MIC (AmpC (22); [6]): > 8 µg/mL
- MIC Range ([1]; MRSA (37)): 0.125 to 16 µg/mL
- MIC50 ([1]; Staphylococcus aureus, MRSA): 2 µg/mL (≈ 8.73 µM)
- MIC90 ([1]; Staphylococcus aureus, MRSA): 4 µg/mL (≈ 17.5 µM)
- MIC ([1]; Staphylococcus aureus, MRSA, read-out: Modal MIC (most frequent MIC)): 2 µg/mL (≈ 8.73 µM)
- MIC50 (All Enterococci (50)): 16 µg/mL (≈ 69.8 µM)
- MIC90 (All Enterococci (50)): 32 µg/mL (≈ 140 µM)
- MIC Range (All Enterococci (50); All Enterococci (50)): 2 to 16 µg/mL
- MIC (All Enterococci (50); [6]): 16 µg/mL (≈ 69.8 µM)
- MIC Range ([2]; MSSA (13)): 0.5 to 2 µg/mL
- MIC50 ([2]; Staphylococcus aureus, MSSA): 1 µg/mL (≈ 4.37 µM)
- MIC90 ([2]; Staphylococcus aureus, MSSA): 2 µg/mL (≈ 8.73 µM)
- MIC ([2]; Staphylococcus aureus, MSSA, read-out: Modal MIC (most frequent MIC)): 1 µg/mL (≈ 4.37 µM)
- MIC50 [3]: 16 µg/mL (≈ 69.8 µM)
- MIC90 [3]: > 32 µg/mL
- MIC [3, 6]: 16 µg/mL (≈ 69.8 µM)
- MIC Range (All S. aureus (50); All S. aureus (50)): 0.125 to 16 µg/mL
- MIC50 (All S. aureus (50); Staphylococcus aureus): 2 µg/mL (≈ 8.73 µM)
- MIC90 (All S. aureus (50); Staphylococcus aureus): 4 µg/mL (≈ 17.5 µM)
- MIC (All S. aureus (50); Staphylococcus aureus, read-out: Modal MIC (most frequent MIC)): 2 µg/mL (≈ 8.73 µM)
- MIC50 [4]: > 8 µg/mL
- MIC90 [4]: > 8 µg/mL
- MIC [4, 6]: > 8 µg/mL
- MIC50 [5]: > 8 µg/mL
- MIC90 [5]: > 8 µg/mL
- MIC [5, 6]: > 8 µg/mL
- MIC50 (Enterobacteriaceae (197)): > 8 µg/mL
- MIC90 (Enterobacteriaceae (197)): > 8 µg/mL
- MIC (Enterobacteriaceae (197); [6]): > 8 µg/mL
- MIC50 (E. coli (53)): 8 µg/mL (≈ 34.9 µM)
- MIC90 (E. coli (53)): > 8 µg/mL
- MIC (E. coli (53); [6]): 8 µg/mL (≈ 34.9 µM)
